#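 How tested: cells in 96-well plates exposed to compound for 48 hours at five concentrations. GI50 marks 50% less growth. TGI: concentration producing complete growth inhibition.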
# Columns and labels:
# Assay in all cases: NCI-60 cell line screen, 48 h
# 786-0 renal = system: 786-0 renal
# A498 renal = system: A498 renal
# A549 NSCLC = system: A549 NSCLC
# ACHN renal = system: ACHN renal
# BT-549 breast = system: BT-549 breast
# CAKI-1 renal = system: CAKI-1 renal
# CCRF-CEM leukemia = system: CCRF-CEM leukemia
# COLO 205 colon = system: COLO 205 colon
# HCC-2998 colon = system: HCC-2998 colon
# HCT-116 colon = system: HCT-116 colon
# HCT-15 colon = system: HCT-15 colon
# HL-60(TB) leukemia = system: HL-60(TB) leukemia
# HOP-62 NSCLC = system: HOP-62 NSCLC
# HS 578T breast = system: HS 578T breast
# HT29 colon = system: HT29 colon
# IGROV1 ovarian = system: IGROV1 ovarian
# K-562 leukemia = system: K-562 leukemia
# KM12 colon = system: KM12 colon
# LOX IMVI melanoma = system: LOX IMVI melanoma
# M14 melanoma = system: M14 melanoma
# MALME-3M melanoma = system: MALME-3M melanoma
# MCF7 breast = system: MCF7 breast
# MDA-MB-231 breast = system: MDA-MB-231 breast
# MOLT-4 leukemia = system: MOLT-4 leukemia
# NCI-H226 lung = system: NCI-H226 lung
# NCI-H23 lung = system: NCI-H23 lung
# NCI-H460 lung = system: NCI-H460 lung
# NCI/ADR-RES ovarian = system: NCI/ADR-RES ovarian
# OVCAR-5 ovarian = system: OVCAR-5 ovarian
# PC-3 prostate = system: PC-3 prostate
# RPMI-8226 leukemia = system: RPMI-8226 leukemia
# RXF 393 renal = system: RXF 393 renal
# SF-268 CNS = system: SF-268 CNS
# SF-295 CNS = system: SF-295 CNS
# SF-539 CNS = system: SF-539 CNS
# SK-MEL-2 melanoma = system: SK-MEL-2 melanoma
# SK-MEL-28 melanoma = system: SK-MEL-28 melanoma
# SK-MEL-5 melanoma = system: SK-MEL-5 melanoma
# SK-OV-3 ovarian = system: SK-OV-3 ovarian
# SN12C renal = system: SN12C renal
# SNB-19 CNS = system: SNB-19 CNS
# SNB-75 CNS = system: SNB-75 CNS
# SR leukemia = system: SR leukemia
# SW-620 colon = system: SW-620 colon
# T-47D breast = system: T-47D breast
# U251 CNS = system: U251 CNS
# UACC-257 melanoma = system: UACC-257 melanoma
# UO-31 renal = system: UO-31 renal
structure (smiles),measurement,setting,value
Cc1cc(Nc2ncc3c(n2)N(C)C(=O)N(c2cc(NC(=O)c4cccc(C(F)(F)F)c4)ccc2C)C3)n(C)n1,GI50,786-0 renal,59.9 nM
same,TGI,786-0 renal,> 46.4 µM
same,GI50,A498 renal,15.8 nM
same,TGI,A498 renal,45.8 nM
same,GI50,A549 NSCLC,44 nM
same,TGI,A549 NSCLC,417 nM
same,GI50,ACHN renal,28.1 nM
same,GI50,BT-549 breast,62.8 nM
same,TGI,BT-549 breast,321 nM
same,GI50,CAKI-1 renal,18.2 nM
same,TGI,CAKI-1 renal,70.9 nM
same,GI50,CCRF-CEM leukemia,2360 nM
same,TGI,CCRF-CEM leukemia,> 46.4 µM
same,GI50,COLO 205 colon,19 nM
same,TGI,COLO 205 colon,36.8 nM
same,GI50,HCC-2998 colon,541 nM
same,TGI,HCC-2998 colon,> 46.4 µM
same,GI50,HCT-116 colon,33.3 nM
same,TGI,HCT-116 colon,27.1 µM
same,GI50,HCT-15 colon,196 nM
same,TGI,HCT-15 colon,> 46.4 µM
same,GI50,HL-60(TB) leukemia,36.5 nM
same,GI50,HOP-62 NSCLC,76.9 nM
same,TGI,HOP-62 NSCLC,> 15.6 µM
same,GI50,HS 578T breast,35.3 nM
same,TGI,HS 578T breast,206 nM
same,GI50,HT29 colon,23 nM
same,TGI,HT29 colon,86.4 nM
same,GI50,IGROV1 ovarian,< 10 nM
same,TGI,IGROV1 ovarian,52.4 nM
same,GI50,K-562 leukemia,< 10 nM
same,TGI,K-562 leukemia,> 46.4 µM
same,GI50,KM12 colon,321 nM
same,TGI,KM12 colon,> 46.4 µM
same,GI50,LOX IMVI melanoma,13.1 nM
same,TGI,LOX IMVI melanoma,30.5 nM
same,GI50,M14 melanoma,< 10 nM
same,TGI,M14 melanoma,96 nM
same,GI50,MALME-3M melanoma,< 12.4 nM
same,TGI,MALME-3M melanoma,48.9 nM
same,GI50,MCF7 breast,624 nM
same,TGI,MCF7 breast,> 46.4 µM
same,GI50,MDA-MB-231 breast,25.5 nM
same,TGI,MDA-MB-231 breast,164 nM
same,GI50,MOLT-4 leukemia,135 nM
same,TGI,MOLT-4 leukemia,> 46.4 µM
same,GI50,NCI-H226 lung,38.7 nM
same,TGI,NCI-H226 lung,> 100 µM
same,GI50,NCI-H23 lung,73.3 nM
same,TGI,NCI-H23 lung,> 31.6 µM
same,GI50,NCI-H460 lung,83.2 nM
same,TGI,NCI-H460 lung,> 46.4 µM
same,GI50,NCI/ADR-RES ovarian,970 nM
same,TGI,NCI/ADR-RES ovarian,> 31.6 µM
same,GI50,OVCAR-5 ovarian,53.9 nM
same,GI50,PC-3 prostate,105 nM
same,TGI,PC-3 prostate,> 31.6 µM
same,GI50,RPMI-8226 leukemia,641 nM
same,TGI,RPMI-8226 leukemia,18.6 µM
same,GI50,RXF 393 renal,21 nM
same,TGI,RXF 393 renal,171 nM
same,GI50,SF-268 CNS,29.1 nM
same,TGI,SF-268 CNS,> 100 µM
same,GI50,SF-295 CNS,364 nM
same,TGI,SF-295 CNS,> 100 µM
same,GI50,SF-539 CNS,62.1 nM
same,TGI,SF-539 CNS,680 nM
same,GI50,SK-MEL-2 melanoma,24.5 nM
same,TGI,SK-MEL-2 melanoma,76.4 nM
same,GI50,SK-MEL-28 melanoma,20 nM
same,TGI,SK-MEL-28 melanoma,150 nM
same,GI50,SK-MEL-5 melanoma,283 nM
same,TGI,SK-MEL-5 melanoma,7.87 µM
same,GI50,SK-OV-3 ovarian,22 nM
same,TGI,SK-OV-3 ovarian,70.1 nM
same,GI50,SN12C renal,16.7 nM
same,TGI,SN12C renal,> 100 µM
same,GI50,SNB-19 CNS,234 nM
same,TGI,SNB-19 CNS,> 46.4 µM
same,GI50,SNB-75 CNS,21.7 nM
same,TGI,SNB-75 CNS,69.9 nM
same,GI50,SR leukemia,26.4 nM
same,TGI,SR leukemia,1210 nM
same,GI50,SW-620 colon,53.9 nM
same,TGI,SW-620 colon,> 46.4 µM
same,GI50,T-47D breast,43.8 nM
same,TGI,T-47D breast,2240 nM
same,GI50,U251 CNS,31.7 nM
same,TGI,U251 CNS,> 31.6 µM
same,GI50,UACC-257 melanoma,19.7 nM
same,TGI,UACC-257 melanoma,125 nM
same,GI50,UO-31 renal,58.3 nM
same,TGI,UO-31 renal,322 nM

# — PubChem BioAssay (NCI)
